According to patent publication US20230272012A1, “PEPTIDES AND METHODS OF USE” (REALTA LIFE SCIENCES, INC., priority 2020, published 2023):
Entries after “also recorded” stand apart in the source; their conditions may differ. Bridge positions count the residues as written; N and C are the ends. Square brackets hold non-standard residues; d marks the D form. Peptide text beside a SMILES is read from it. S5 = C=CCCC[C@](C)(N)C(=O)O; Sar = CNCC(=O)O

System: human neutrophils
Experiment: NETosis assay (free DNA, PicoGreen)
Type: cell-based
Details: peptide 2 mM; neutrophils stimulated with PMA and H2O2
Protocol: Free DNA as a marker for NET formation was measured by PicoGreen as previously described. Briefly, 2.0×10^6 human neutrophils in 96-well plates were stimulated with 12 nM PMA and 0.05% H2O2 in RPMI with or without the indicated peptide variants (2 mM) for 2.5 hr in a 37° C. humified incubator supplemented with 5% CO2, allowing NETosis to occur. Neutrophils in RPMI alone served as a negative control. Fifty units of […] (Fisher) were added to each well to allow for digestion of released extracellular DNA for 10 min at 37° C. The preparation was then aliquoted into an adjacent well and mixed 1:1 with prepared PICO green reagent (Fisher). The fluorescence was then quantified on a BioTek microplate reader at excitation 485 nm/emission 528 nm.

In the case of `CC[C@H](C)[C@H](N)C(=O)N[C@@H](C)C(=O)N[C@@H](CC(C)C)C(=O)N[C@H](C(=O)N[C@@H](CC(C)C)C(=O)N[C@@H](CCC(=O)O)C(=O)N1CCC[C@H]1C(=O)N(C)CC(=O)N[C@@H](CS)C(=O)N[C@@]1(C)CCCC=CCCC[C@@](C)(C(=O)N[C@@H](C)C(=O)O)NC(=O)[C@H](CCCNC(=N)N)NC(=O)[C@H](CCC(=O)O)NC(=O)[C@H](CCC(N)=O)NC1=O)[C@@H](C)CC` [PA-0117, IALILEP(Sar)CS5QERS5A] (H-IALILEP[Sar]C[S5]QER[S5]A-OH; staple 10-14), the “reduction of free DNA (marker of NETosis)” value is reported as “did not reduce levels of free DNA; also recorded: did not show a reduction in free DNA”.
